Test [1] can be described thus: Inhibitory concentration against mannan binding relative to concanavalin A; Using QCM(quartz crystal microbalance) assay; NA= Not active.
Test [2] in a line: (§1) Inhibitory concentration against mannan binding relative to concanavalin A; Using QCM(quartz crystal microbalance) assay.
Test [3] in a line: as §1. The source holds these as a separate data set.

Usually IC50 stands for the midpoint of a concentration-inhibition curve. A low value points to greater potency. As for `COC1O[C@H](CSSCC2O[C@H](OC)C(O)[C@@H](O)[C@@H]2O)C(O)[C@@H](O)[C@@H]1O` (stereo partly specified), the IC50 result in test [1] was “Not Active”.

`CO[C@H]1O[C@H](CO)[C@@H](O)[C@H](O)[C@@H]1O` yielded an IC50 in test [2] of 1.1 mM. The molecule `OCC1O[C@H](S)C(O)[C@@H](O)[C@@H]1O` (stereo partly specified) came in with an Inhibition in test [3] of 10 mM. Turning to `CC(=O)NC1C(O)[C@@H](O)C(CO)O[C@H]1SS[C@@H]1OC(CO)[C@H](O)[C@@H](O)C1NC(C)=O` (single isomer, unassigned), in test [1], the IC50 result is “Not Active”. In turn, `CC(=O)NC1[C@@H](O)[C@H](O)C(CO)O[C@H]1SS[C@@H]1OC(CO)[C@@H](O)[C@@H](O)C1NC(C)=O` (stereo in doubt) showed a 50% inhibitory concentration (IC50) in test [2] of 2 mM.

In test [2], `OC[C@H]1OC(O)[C@@H](O)[C@@H](O)[C@@H]1O` (stereo partly drawn) [D-MANNOSE] showed an IC50 of 5.3 mM.
